Data as given in US20250312303A1, “ANTICANCER AGENT” (AGC Inc., priority 2022, published 2025).
“And” between values parts separate entries of the source, which are not always exact repeats. Equal entries are not always repeated.

Legend:
NHDF cells = assay: SRB assay, relative cell proliferation rate of NHDF cells (control non-cancer cells); type: cell-based; details: Val-removed medium + 0.8 mM amino acid
Excerpt: (§1) HeLa cells and PANC-1 cells were used as the cancer cells. Both these cells were obtained from ATCC. Further, NHDF cells obtained from Lonza Group Ltd. were used as control non-cancer cells. The culture mediums used were Dulbecco's Modified Eagle Medium (D-MEM, manufactured by FUJIFILM Wako Pure Chemical Corporation) to which 10% FBS had been added (hereinafter also referred to as the “normal medium”), a medium prepared by removing leucine from D-MEM and adding 10% FBS (hereinafter also referred to as the “Leu-removed medium”), and a medium prepared by removing valine from D-MEM and adding 10% FBS (hereinafter also referred to as the “Val-removed medium”).
(§2) The culture cells were inoculated into a 96-well culture plate at a concentration of 3×10^3 cells/well, and following adhesion, were cultured for 24, 48 or 72 hours in the normal medium, the Leu-removed medium or Val-removed medium, or a medium prepared by adding the fluorine-containing amino acid to the Leu-removed medium or Val-removed medium in an amount sufficient to achieve a final concentration of 0.8 mM. Following culturing, the cell proliferation rate was measured by SRB assay. As a control, the cell proliferation rate was measured in a similar manner for cells having a culture time of 0 hours.
(§3) The SRB assays were conducted in the following manner. Following cell culturing, the medium was removed, and 10% (wt/vol) of trichloroacetic acid was added to fix the cells. Subsequently, the fixed cells were washed three times with tap water, and then stained by adding a solution containing 0.4% (wt/vol) of sulforhodamine B dissolved in 1% acetic acid. Following subsequent washing three times with a 1% acetic acid solution, a 10 mM Tris solution was added, and the light absorbance at 540 nm was measured. The 540 nm absorbance value for each sample was used to indicate the cell quantity, and for each sample, the relative cell proliferation rate (%) at a culture time of X hours was determined using the formula below.
(§4) SRB assays were conducted in the same manner as Example 1 with the exceptions of using a medium prepared by removing glutamine from D-MEM and adding 10% FBS (hereinafter also referred to as the “Gln-removed medium”) as the culture medium instead of the Leu-removed medium, using monofluoroglutamine ((2S,4S)Gln(1F) or (2S,4R)Gln(1F)) as the fluorine-containing amino acid, and altering the amount of monofluoroglutamine added to the Gln-removed medium to an amount sufficient to achieve a final concentration of 4 mM.

PANC-1 cells = assay: SRB assay, relative cell proliferation rate of PANC-1 cells; type: cell-based; details: Val-removed medium + 0.8 mM amino acid
Excerpt: as §1, §2, §3, §4
(§5) SRB assays were conducted in the same manner as Example 1 with the exceptions of using the Gln-removed medium as the culture medium instead of the Leu-removed medium, using difluoroglutamine as the fluorine-containing amino acid, and altering the amount of difluoroglutamine added to the Gln-removed medium to an amount sufficient to achieve a final concentration of 4 mM.

HeLa cells [1] = assay: SRB assay, relative cell proliferation rate of HeLa cells; type: cell-based; details: Val-removed medium + 0.8 mM amino acid
Excerpt: as §1, §2, §3, §4, §5

HeLa cells [2] = assay: Tumor volume of subcutaneously transplanted HeLa cells in SCID/SCID mice; type: in vivo; details: for Tumor volume: 5 mg/kg intraperitoneally every day for two weeks starting day 7
Description: First, 0.1 mL samples of an HeLa cell solution with a concentration of 1.0×10^7 cells/mL were transplanted beneath the skin of SCID/SCID (immunodeficient) mice. Starting 7 days after the HeLa cell transplantation, PBS (control group), leucine (5 mg/kg mouse bodyweight) or trifluoroleucine (5 mg/kg mouse bodyweight) was administered intraperitoneally every day for two weeks. The growth of the tumor tissue was observed over time from the time of HeLa transplantation, and the tumor volume (mm^3) was calculated. The tumor volume (mm^3) was calculated from the major diameter (mm) of the tumor tissue and the minor diameter (mm) of the tumor tissue using the formula shown below.
With the exceptions of using monofluoroisoleucine or 5-fluoro-5-methyl-norleucine (CAS RN: 1361228-49-0) instead of the trifluoroleucine, and starting the administration of the PBS, 5-fluoro-5-methyl-norleucine or monofluoroisoleucine 11 days after rather than 7 days after the HeLa cell transplantation, the same procedure as (1) above was used to measure the volume (mm^3) of the tumor formed by the subcutaneously transplanted HeLa cells over time.
(§6) First, 0.1 mL samples of an HeLa cell solution with a concentration of 1.0×10^7 cells/mL were transplanted beneath the skin of SCID/SCID (immunodeficient) mice. Starting 7 days after the HeLa cell transplantation, PBS (control group), glutamine (Gln) (5 mg/kg mouse bodyweight), (2S,4S)Gln(1F) (5 mg/kg mouse bodyweight) or (2S,4R)Gln(1F) (5 mg/kg mouse bodyweight) was administered intraperitoneally every day for two weeks. The growth of the tumor tissue was observed over time from the time of HeLa cell transplantation, and the tumor volume (mm^3) was calculated. The tumor volume (mm^3) was determined in the same manner as that described in Example 2.
as §6, with “mouse bodyweight), or di-F-Gln(F)” for “mouse bodyweight), (2S,4S)Gln(1F) (5 mg/kg mouse bodyweight) or (2S,4R)Gln(1F)”, “bodyweight), or di-F-Gln(F) (5 mg/kg” for “bodyweight) or (2S,4R)Gln(1F) (5 mg/kg”, “of HeLa transplantation, and” for “of HeLa cell transplantation, and”

[3] = culture time 72 h, listed as hexafluorovaline
[4] = 7 days since HeLa cell transplantation
[5] = 14 days since HeLa cell transplantation
[6] = 21 days since HeLa cell transplantation

Which “Relative cell proliferation rate of NHDF cells” value (NHDF cells; culture time 24 h) does the source give for `NC(C(=O)O)C(C(F)(F)F)C(F)(F)F` (racemic) [Val(6F), 4,4,4,4′,4′,4′-hexafluoro-DL-valine] here?
Its value is 109.8%.

And the “Relative cell proliferation rate of NHDF cells” value (NHDF cells; culture time 48 h)?
The value was 104.4%.

And the “Relative cell proliferation rate of NHDF cells” value (NHDF cells; culture time 72 h)?
The value was 125.2%.

What about the “Relative cell proliferation rate of NHDF cells” value (NHDF cells; [3]) of the same compound?
Its value is “lower than the relative cell proliferation rate observed for the Val-removed medium”.

What about the “Relative cell proliferation rate of PANC-1 cells” value (PANC-1 cells; culture time 24 h) of the same compound?
Its value is 104.3%.

And the “Relative cell proliferation rate of PANC-1 cells” value (PANC-1 cells; culture time 48 h)?
Its value is 133.4%.

And the “Relative cell proliferation rate of PANC-1 cells” value (PANC-1 cells; culture time 72 h)?
The value was 141.3%.

What about the “Relative cell proliferation rate of HeLa cells” value (HeLa cells [1]; culture time 24 h) of the same compound?
Its value is 88.1%.

And the “Relative cell proliferation rate of HeLa cells” value (HeLa cells [1]; culture time 48 h)?
The value was 93.7%.

And the “Relative cell proliferation rate of HeLa cells” value (HeLa cells [1]; culture time 72 h)?
The value was 67.6%.

What about the “Relative cell proliferation rate of HeLa cells” value (HeLa cells [1]; [3]) of the same compound?
The value was “less than 100%”.

How did the Tumor volume (HeLa cells [2]; [4]) turn out when `NC(=O)CC[C@H](N)C(=O)O` [Gln, glutamine, reference compound] was run?
The Tumor volume was 76.0 mm^3 and 97.3 mm^3.

What about the Tumor volume (HeLa cells [2]; 9 days since HeLa cell transplantation) of the same compound?
Its Tumor volume is 134.7 mm^3 and 259.1 mm^3.

What about the Tumor volume (HeLa cells [2]; 11 days since HeLa cell transplantation) of the same compound?
The Tumor volume was 215.4 mm^3 and 341.0 mm^3.

And the Tumor volume (HeLa cells [2]; [5])?
Its Tumor volume is 488.0 mm^3 and 721.9 mm^3.

What about the Tumor volume (HeLa cells [2]; 16 days since HeLa cell transplantation) of the same compound?
The Tumor volume was 734.1 mm^3 and 1094.6 mm^3.

What about the Tumor volume (HeLa cells [2]; 18 days since HeLa cell transplantation) of the same compound?
Its Tumor volume is 939.6 mm^3 and 1348.3 mm^3.

And the Tumor volume (HeLa cells [2]; [6])?
The Tumor volume was 1256.0 mm^3 and 1849.5 mm^3.

What about the “Increase in the size of the tumor tissue compared with the control group” value (HeLa cells [2]; HeLa tumor-bearing SCID/SCID mice, 5 mg/kg intraperitoneally every day for two weeks, result in words) of the same compound?
The value was “even larger than the control group”.

Which Tumor volume (HeLa cells [2]; [4]) does the source give for `CC(C)C[C@H](N)C(=O)O` [Leu, leucine, reference compound] here?
The Tumor volume was 77.4 mm^3.

What about the Tumor volume (HeLa cells [2]; 10 days since HeLa cell transplantation) of the same compound?
The Tumor volume was 190.1 mm^3.

And the Tumor volume (HeLa cells [2]; 12 days since HeLa cell transplantation)?
The Tumor volume was 355.3 mm^3.

What about the Tumor volume (HeLa cells [2]; [5]) of the same compound?
The Tumor volume was 385.1 mm^3.

What about the Tumor volume (HeLa cells [2]; 17 days since HeLa cell transplantation) of the same compound?
The Tumor volume was 714.2 mm^3.

And the Tumor volume (HeLa cells [2]; 19 days since HeLa cell transplantation)?
Its Tumor volume is 1094.6 mm^3.

What about the Tumor volume (HeLa cells [2]; [6]) of the same compound?
The Tumor volume was 1536.5 mm^3.

Which results are given for `CC(C(N)C(=O)O)C(F)(F)F` (centres unmarked) [Val(3F), 2-amino-3-methyl-4,4,4-trifluorobutanoic acid]?
Relative cell proliferation rate of NHDF cells (NHDF cells; culture time 24 h): 83.0%; Relative cell proliferation rate of NHDF cells (NHDF cells; culture time 48 h): 104.6%; Relative cell proliferation rate of NHDF cells (NHDF cells; culture time 72 h): 116.6%; Relative cell proliferation rate of PANC-1 cells (PANC-1 cells; culture time 24 h): 108.9%; Relative cell proliferation rate of PANC-1 cells (PANC-1 cells; culture time 48 h): 161.2%; Relative cell proliferation rate of PANC-1 cells (PANC-1 cells; culture time 72 h): 253.7%; Relative cell proliferation rate of HeLa cells (HeLa cells [1]; culture time 24 h): 151.7%; Relative cell proliferation rate of HeLa cells (HeLa cells [1]; culture time 48 h): 287.6%; Relative cell proliferation rate of HeLa cells (HeLa cells [1]; culture time 72 h): 494.3%
